Reference: patent publication US8815909B2, “Diaminocyclohexane compounds and uses thereof” (Bristol-Myers Squibb Company, priority 2011, dated 2014)
Counter-ions that a name gives are not always drawn.

What follows are molecules tested against T1, human Y4 receptor (Homo sapiens, UniProt P50391) (assay: NPY4 cAMP HTRF Agonist Assay (inhibitory cAMP assay, Gi activation by Y4 agonism)). Details: TABLE 2, R2 is Phenyl-CN; read-out: hY4 CAMP EC50.
T1 construct: expressed in transfected cells
Type: cell-based
How it was run: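 CHO cells stably expressing human Y4, 5000/well, exposed to compound with forskolin and IBMX in PBS for 30 min at room temperature. Gi-mediated inhibition of cAMP then measured by HTRF after 1 h with d2-conjugate and anti-cAMP cryptate.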

T1 sequence (P50391 whole entry): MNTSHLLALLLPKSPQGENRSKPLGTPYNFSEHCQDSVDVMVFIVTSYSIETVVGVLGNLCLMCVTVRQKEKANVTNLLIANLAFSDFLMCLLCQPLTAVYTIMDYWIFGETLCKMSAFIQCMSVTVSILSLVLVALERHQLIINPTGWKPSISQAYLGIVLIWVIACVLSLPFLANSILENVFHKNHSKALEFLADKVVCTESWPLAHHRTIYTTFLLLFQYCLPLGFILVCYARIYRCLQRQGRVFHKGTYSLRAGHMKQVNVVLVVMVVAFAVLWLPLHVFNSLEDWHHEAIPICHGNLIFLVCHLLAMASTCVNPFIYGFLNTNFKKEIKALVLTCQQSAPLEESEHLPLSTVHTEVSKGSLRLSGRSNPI

| EC50 [µM] | Structure (SMILES) |
| --- | --- |
| 0.022 | N#Cc1ccc(N2CCC[C@H](N[C@@H]3CCCC[C@H]3Nc3cc(-c4cccc5[nH]ncc45)ccn3)C2)cc1 [Example 211] |
| 0.537 | N#Cc1ccc(N2CCC[C@H](N[C@@H]3CCCC[C@H]3Nc3cc(-c4cccc(C(F)(F)F)c4)ccn3)C2)cc1 [Example 249] |
| 0.872 | N#Cc1ccc(N2CCC[C@H](N[C@@H]3CCCC[C@H]3Nc3cc(-c4ccccc4N)ccn3)C2)cc1 [Example 275] |

Same assay, conditions: TABLE 5, R2 is Pyridinyl-CF3; read-out: hY4 CAMP EC50

| EC50 [µM] | Structure (SMILES) |
| --- | --- |
| 0.009 | NC(=O)c1cccc(-c2cnc(N[C@@H]3CCCC[C@H]3N[C@H]3C[C@@H]4C[C@H]3N(c3ccc(C(F)(F)F)cn3)C4)o2)c1 [Example 326] |

Same assay, conditions: TABLE 7, R2 is Pyridinyl-oxadiazole-CH3; read-out: hY4 CAMP EC50

| EC50 [µM] | Structure (SMILES) |
| --- | --- |
| 0.003 | Cc1nc(-c2ncc(N3CCC[C@H](N[C@@H]4CCCC[C@H]4Nc4ncc(-c5cccc(C(N)=O)c5)o4)C3)cn2)no1 [Example 390] |

Same assay, conditions: human Y4 receptor, cAMP; read-out: hY4 CAMP EC50

| Structure (SMILES) | EC50 [µM] |
| --- | --- |
| CNC(=O)c1cccc(-c2cnc(N[C@@H]3CCCC[C@H]3N[C@H]3CCCN(c4cnc(C(F)(F)F)nc4)C3)o2)c1 [Example 409] | 0.004 |
| COC(=O)c1cccc(-c2cnc(N[C@@H]3CCCC[C@H]3N[C@H]3CCCN(c4ccc5nc(C)nn5c4)C3)o2)c1 [Example 495] | 0.049 |
| COC(=O)Nc1cccc(-c2cnc(N[C@@H]3CCCC[C@H]3N[C@H]3CCCN(c4cnc(C(F)(F)F)cn4)C3)o2)c1 [Example 427] | 0.001 |
| N#Cc1ncc(N2CCC[C@H](N[C@@H]3CCCC[C@H]3Nc3ncc(-c4cccc(C(N)=O)c4)o3)C2)cn1 [Example 438] | 0.005 |
| Cc1nc2ccc(N3CCC[C@H](N[C@@H]4CCCC[C@H]4Nc4ncc(-c5cc(F)c(F)c(F)c5)o4)C3)cn2n1 [Example 498] | 0.063 |
| FC(F)(F)Oc1ccc(-c2cnc(N[C@@H]3CCCC[C@H]3N[C@H]3CCCN(c4cnc(C(F)(F)F)nc4)C3)o2)cc1 [Example 401] | 1.48 |

Results, then the molecule that gave them:

| EC50 [µM] | Structure (SMILES) |
| --- | --- |
| 0.052 | Cc1nnc(-c2ccc(N3CCCC(N[C@@H]4CCCC[C@H]4Nc4cc(-c5ccc(Cl)cc5)ccn4)C3)cc2)o1 (stereo partly shown) [Example 365] |
| 0.064 | Cc1nnc(-c2ccc(N3CCCC(N[C@@H]4CCCC[C@H]4Nc4cc(-c5cccnc5)ccn4)C3)cc2)o1 (stereo partly shown) [Example 345] |
| 0.217 | Cc1nnc(-c2ccc(N3CCC[C@H](N[C@@H]4CCCC[C@H]4Nc4cc(-c5ccc(OC(F)F)cc5)ccn4)C3)cc2)o1 [Example 375] |

Same assay, conditions: human Y4 stable CHO clonal cells, forskolin + IBMX; read-out: NPY4 cAMP HTRF Agonist Assay EC50

| Structure (SMILES) | EC50 [µM] |
| --- | --- |
| N#Cc1ccc(N2CCC[C@H](N[C@@H]3CCCC[C@H]3Nc3nccc(-c4cccc(OC(F)(F)F)c4)n3)C2)cc1 [Example 61, 4-((S)-3-((1R,2R)-2-(4-(3-(Trifluoromethoxy)phenyl)pyrimidin-2-ylamino)cyclohexylamino)piperidin-1-yl)benzonitrile bis-trifluoroacetate] | 0.861 |
| O=[N+]([O-])c1ccc(N2CCC[C@H](N[C@@H]3CCCC[C@H]3Nc3nnc(-c4ccccc4)o3)C2)cc1 [Example 27, (1R,2R)—N1-((S)-1-(4-Nitrophenyl)piperidin-3-yl)-N2-(5-phenyl-1,3,4-oxadiazol-2-yl)cyclohexane-1,2-diamine] | 0.06 |
| O=[N+]([O-])c1ccc(N2C[C@@H]3C[C@H](N[C@@H]4CCCC[C@H]4Nc4ncc(-c5ccc(O)cc5)o4)[C@H]2C3)cc1 [Example 16, 4-(2-((1R,2R)-2-((1R,4R,6S)-2-(4-Nitrophenyl)-2-azabicyclo[2.2.1]heptan-6-ylamino)cyclohexylamino)oxazol-5-yl)phenol] | 0.006 |
| O=[N+]([O-])c1ccc(N2CCC[C@H](N[C@@H]3CCCC[C@H]3Nc3ncc(-c4ccc(OC(F)(F)F)cc4)o3)C2)cc1 [Example 1, (1R,2R)—N1-((S)-1-(4-Nitrophenyl)piperidin-3-yl)-N2-(5-(4-(trifluoromethoxy)phenyl)oxazol-2-yl)cyclohexane-1,2-diamine] | 0.006 |
| Ic1ccc(N2CCC[C@H](N[C@@H]3CCCC[C@H]3Nc3nccc(-c4ccccc4)n3)C2)cc1 [Example 92, (1R,2R)—N1-((S)-1-(4-Iodophenyl)piperidin-3-yl)-N2-(4-phenylpyrimidin-2-yl)cyclohexane-1,2-diamine bis-trifluoroacetate] | 0.469 |
| N#Cc1cnc(N[C@@H]2CCCC[C@H]2N[C@H]2CCCN(c3ccc(C(F)(F)F)cc3)C2)o1 [Example 113, 2-(((1R,2R)-2-(((S)-1-(4-(trifluoromethyl)phenyl)piperidin-3-yl)amino)cyclohexyl)amino)oxazole-5-carbonitrile] | 0.091 |
| COc1ccc(-c2ccnc(N[C@@H]3CCCC[C@H]3N[C@H]3CCCN(c4ccc(C#N)cc4)C3)n2)cc1 [Example 58, 4-((S)-3-((1R,2R)-2-(4-(4-Methoxyphenyl)pyrimidin-2-ylamino)cyclohexylamino)piperidin-1-yl)benzonitrile trifluoroacetate] | 1.17 |

Other lines, results leading:

| EC50 [µM] | Structure (SMILES) |
| --- | --- |
| 0.011 | COc1ccc(-c2cnc(N[C@@H]3CCCC[C@H]3N[C@H]3CCCN(c4ccc([N+](=O)[O-])cc4)C3)o2)c(F)c1 [Example 21, (1R,2R)—N1-(5-(2-fluoro-4-methoxyphenyl)oxazol-2-yl)-N2-((S)-1-(4-nitrophenyl)piperidin-3-yl)cyclohexane-1,2-diamine] |
| 0.008 | N#Cc1ccc(N2CCC[C@H](N[C@@H]3CCCC[C@H]3Nc3ncc(-c4ccc(OC(F)(F)F)cc4)o3)C2)cc1Cl [Example 38, 2-Chloro-4-((S)-3-((1R,2R)-2-(5-(4-(trifluoromethoxy)phenyl)oxazol-2-ylamino)cyclohexylamino)piperidin-1-yl)benzonitrile bis-trifluoroacetate] |
| 0.0003 | C[C@]1(N[C@@H]2CCCC[C@H]2Nc2ncc(-c3cccc(C(N)=O)c3)o2)CCCN(c2ccc(C(F)(F)F)cc2)C1 [Example 106, 3-(2-(((1R,2R)-2-(((S)-3-Methyl-1-(4-(trifluoromethyl)phenyl)piperidin-3-yl)amino)cyclohexyl)amino)oxazol-5-yl)benzamide] |
| 0.007 | O=[N+]([O-])c1ccc(N2CCC[C@H](N[C@@H]3CCCC[C@H]3Nc3ncc(-c4ccc(F)cc4)o3)C2)cc1 [Example 18, (1R,2R)—N1-(5-(4-Fluorophenyl)oxazol-2-yl)-N2-((S)-1-(4-nitrophenyl)piperidin-3-yl)cyclohexane-1,2-diamine] |
| 0.193 | N#Cc1ccc(N2CCC[C@H](N[C@@H]3CCCC[C@H]3Nc3ncc(-c4ccc(OC(F)(F)F)cc4)o3)C2)c(F)c1 [Example 52, 3-Fluoro-4-((S)-3-((1R,2R)-2-(5-(4-(trifluoromethoxy)phenyl)oxazol-2-ylamino)cyclohexylamino)piperidin-1-yl)benzonitrile] |
| 0.389 | O=[N+]([O-])c1ccc(N2CCC[C@H](N[C@@H]3CCCC[C@H]3Nc3nccc(-c4cccc(OC(F)(F)F)c4)n3)C2)cc1 [Example 29, (1R,2R)—N1-((S)-1-(4-Nitrophenyl)piperidin-3-yl)-N2-(4-(3-(trifluoromethoxy)phenyl)pyrimidin-2-yl)cyclohexane-1,2-diamine] |

Same assay, conditions: second TABLE 1, R2 is Phenyl-CF3; read-out: hY4 CAMP EC50

| EC50 [µM] | Structure (SMILES) |
| --- | --- |
| 0.005 | Nc1cccc(-c2cnc(N[C@@H]3CCCC[C@H]3N[C@H]3CCCN(c4ccc(C(F)(F)F)cc4)C3)o2)c1 [Example 172] |
| 0.042 | OCCCCc1ccnc(N[C@@H]2CCCC[C@H]2N[C@H]2CCCN(c3ccc(C(F)(F)F)cc3)C2)c1 [Example 187] |
| 0.004 | NC(=O)c1cccc(-c2ccnc(N[C@@H]3CCCC[C@H]3N[C@H]3CCCN(c4ccc(C(F)(F)F)cc4)C3)c2)c1 [Example 119] |
| 0.192 | O=C(NC1CCCC1)c1cccc(-c2ccnc(N[C@@H]3CCCC[C@H]3N[C@H]3CCCN(c4ccc(C(F)(F)F)cc4)C3)c2)c1 [Example 150] |
